Measurements as given in patent US8969549B2, “Antioxidant small molecules aimed at targeting metal-based oxidative stress in neurogenerative disorders” (Texas Christian University, priority 2013, dated 2015).

Key:
HT-22 cells = assay: Aβ and Cu^+2 toxicity protection (MTT); type: cell-based, mouse; details: compound 50 to 120 μM, Aβ 15 μM, copper 15 μM
Description: In FIG. 16 one can observe that compound 2 (LC) is capable of protection from ranges of 50 to 120 μM reaching 37% of increase of cell proliferation with respect to the control (Aβ+Cu^+2). It is also shown that Aβ toxicity (15 μM) increases upon addition of copper (15 μM) opening the possibility of explaining the mechanism of action of LC (compound 2) which involves the possible chelation of copper out of the plaques, although the possibility of assessing ROS is always present. The experiment is completed with several controls including just compound 2, (Chart 4) and just copper, for comparison purposes.
The same analysis was performed for compound 3, (Chart 4), keeping the same ranges of concentrations for the compound (50 to 120 μM) as well as amyloid and copper. Restoring of cell proliferation was observed from 3 to 17%. […]
(§1) (3-(4,5-dimethylthiazol-2-yl)-2,5-diphenyltetrazolium bromide) cells were seeded in a 96 well plate with a density of 5000 cells per well (in 100 μL per well). […] Media is discarded again and 100 μL of DMSO are added to each well, rocked for 5 minutes and the absorbance (A510) was measured using a Molecular Devices Kinetic Microplate Reader.

[1] = DPPH radical quenching assay; type: biochemical; details: 1250 μM
Source text: (§2) Compound 2 (Chart 2) exists largely as the pyridol tautomer as confirmed by NMR. The reactivity of pyridol/pyridone based compounds such as chelidamic acid have shown reactivity with OH radicals in solution to form bis-pyridones and is a different mechanism than pyridine based compounds such as 1 (Chart 2). This reactivity is attributed to the enhanced antioxidant capacity observed. Chelidamic acid is the pyridone congener to the starting material used to produce 1. Therefore similar methodologies to produce 2 in gram scale quantities were employed.
As radicals are one product of miscompartmentalized metal ions, radical scavenging capability of compounds 1-3 (Chart 4) was tested using the DPPH assay. DPPH (2,2-diphenyl-1-picrylhydrazyl), is a dark purple (λmax=540 nm), stable free radical in solution that can be reduced to DPPHH in the presence of molecules with radical scavenging activity. This process results in a color change from dark purple to light yellow and can be followed spectroscopically by the decrease of the band at 540 nm. Applicants have, therefore, utilized this method to measure radical scavenging capability of their own organic molecules. BHT (butylhydroxytoluene) was used as a positive control due to its known antioxidant properties.
DPPH stock solution was prepared by dissolving 25 mg in 100 mL of absolute EtOH. The working radical solution was prepared by dilution with absolute EtOH to an absorbance of 1.3 at 512 nm. Stock solutions of the compounds tested were dissolved in DI H2O and EtOH 95% respectively and serial dilutions were made to get different concentrations. For the analysis 2 mL of the solutions were incubated with 2 mL of DPPH working solutions in the dark for 24 h. as well as 2 mL of DPPH working solution with 2 mL of H2O or EtOH to serve as blank. Analysis of the solutions was performed as follows: 1 mL of the sample solution was diluted with 1 mL of H2O shaken and the absorbance was measured at 515 nm.

MTT cytotoxicity assay = type: cell-based; details: mouse, HT-22 hippocampal neuronal cells, HT-22 cells
Description: As these compounds show potential for future in vivo studies, the 3-(4,5-dimethythiazol-2-yl)-2,5-diphenyl tetrazolium bromide (MTT) assay was performed in order to test compounds 2, 3 of Chart 4 for cytotoxicity with HT-22 cells, which is a hippocampal neuronal cell line extracted from mice. This is a colorimetric assay that measures the mitochondrial activity of living cells in which MTT crosses into the mitochondria where it is reduced to media insoluble formazan (dark purple), which is later solubilized in DMSO and measured spectroscopically (λmax=540 nm). Since the reduction of MTT can only occur in living cells with undamaged mitochondria, this is a good assay to measure cell proliferation and cytotoxicity.
For the biological assays mouse hippocampal HT-22 cell line was used, incubated them at 37° C. in a humidified atmosphere 5% CO2, with Dulbecco's Modified Eagle Medium (500 ml) containing penicillin/streptomycin 100× (5 ml), Glutamine (100 mM, 5 ml), charcoal strip fetal bovine serum. […]
as §1

[2] = LA/DHLA; cited from earlier work
[3] = cited from earlier work
FRDA cells [4] = assay: Calcein AM viability assay with BSO; type: cell-based, human; details: Homo sapiens, 48 hour BSO 1 mM, compound 1 nM final, read-out: cell viability compared to untreated control cells
Description: FIG. 5 is a graph showing a Calcien AM viability assay of FRDA cells after 48 hour exposure to BSO [1 mM] with 1-4 [1 nM final].
FIG. 10 is a graph showing Calcein AM viability assay of FRDA cells after 48 hour exposure to BSO [1 mM] followed by addition of 2 [various concentrations].
FRDA cells have higher levels of ROS due to mitochondrial misfunction associated with frataxin expression and therefore serve as a good model for ROS protection. […] Calcein AM, a non-fluorescent, hydrophobic compound that easily permeates intact, live cells, was used as an indicator for cell viability.
This dose response is visualized in the fluorescent cell images shown in FIG. 11 with increased cell survival corresponding to increasing 2 in the nM range.

Aβ1-40 [5] = assay: Turbidity assay of metal-induced amyloid aggregation; type: biochemical; details: for disaggregation of pre-formed metal-induced Aβ1-40 aggregates (turbidity): copper(II) or zinc(II) aggregates, ligand added afterwards
Source text: Metal ions (copper and zinc) bind to a histidine rich domain in amyloid producing Aβ in the form of insoluble plaques. This process has been comprehensively studied and described in a number of recent reviews. The aggregation of amyloid can be followed by simple spectroscopic techniques such as turbidity and tyrosine fluorescence studies. These methods were used to investigate the ability of 1 to dissociate pre-formed amyloid aggregates upon addition of metal ions, as well as prevent amyloid aggregation.
Metal ions bind to a histidine rich domain in amyloid producing Aβ in the form of insoluble plaques. This process has been extensively studied and described in a number of recent reviews.

[6] = ABTS radical assay standardized against Trolox; type: biochemical; details: ligand concentration 100 μM
Aβ1-40 [7] = assay: Tyr^10 fluorescence of Aβ1-40; type: biochemical
Source text: FIG. 2 is a graph showing the addition of ligands 1-4 to aggregated Aβ results in reconstitution of Tyr^10 fluorescence which was decreased due to aggregate formation.
To further determine the capability of 1 to prevent or disrupt metal-ion induced amyloid aggregation, Applicant's studied Tyr fluorescence intensity. Recent reports have also utilized the natural fluorescence of the native Tyr^10 in the Aβ1-40 sequence to study the conformational dynamics of amyloid folding as it relates to AD and/or production of H2O2. As Tyr^10 is located within proximity to the metal binding pocket in Aβ1-40 the fluorescence intensity of the phenolic side chain decreases during the folding process due to environmental changes that occur locally. This work was supported by circular dichroism spectra, which verified that fluorescence intensity decreased as the conformation of amyloid changed to beta-sheets. […] Applicant's hypothesis was that Tyr fluorescence intensity should be restored to control levels upon addition of compounds 1-4 (Chart 1) to a solution of pre-formed metal aggregates, as shown below in FIG. 2. […] Similar results were also obtained for amyloid samples co-incubated with 1-4 prior to metal ion addition.
The macrocyclic compound 2 (Chart 2) is also a chelator capable of preventing metal-induced amyloid formation as well as disaggregation. Metal ions bind to a histidine rich domain in amyloid producing Aβ in the form of insoluble plaques. This process has been extensively studied and described in a number of recent reviews. […] Moreover, amyloid aggregates formed by metal ion co-incubation can be disaggregated by the addition of compounds 1 or 2 (FIG. 12b).

[8] = Cu-ascorbate redox system with coumarin-3-carboxylic acid (CCA); type: biochemical
Source text: As increased levels of ROS are associated with AD, Applicant's set out to investigate the antioxidant character of 1 compared to the heterocycles 2 and/or 3. […] Moreover, many of the pathways proposed to produce ROS leading to AD pathology involve metal ions. Applicant's therefore utilized the Cu-ascorbate redox system, Scheme 1, as a model to determine if the ligands could halt copper based redox activity under aerobic conditions:
Faller and co-workers employed this system to investigate the redox chemistry of amyloid systems with Cu. Coumarin-3-carboxylic acid (CCA), which generates fluorescent 7-hydroxy-CCA in the presence of hydroxyl radicals, was used to quantify the reduction of oxygen by copper redox-cycling in the presence of ascorbate.

[9] = log K constants with Cu^II; type: binding
Source text: (§3) The ligand is the backbone to PCTA, a potential MRI contrast agent explored in recent years and has been repurposed for Applicant's work.

FRDA cells [10] = assay: DCFH-DA ROS assay with BSO; type: cell-based, human; details: 12 hours BSO 1 mM, compound 4 nM
Description: FIG. 6 is a graph showing DCFH-DA fluorescent response in FRDA cells after 12 hours exposure to BSO [1 mM] with 1-4 [4 nM].
FIG. 7 is a graph of DCFH-DA fluorescent response in FRDA cells after 12 hours exposure to BSO [1 mM] showing dose dependence with 1.
FIG. 9 is a graph of DCFH-DA fluorescent response in FRDA cells after 12 hours exposure to BSO [1 mM] showing dose dependence with 1 and 2.
The antioxidant activity of compound 1 compared to compounds 2-3 (Chart 1) was then studied using the cell-permeable fluorophore 2,7′-Dichlorodihydrofluorescin diacetate (DCFH-DA) as an indicator for ROS. DCFH-DA diffuses into cells and is deacetylated by cellular esterases to non-fluorescent 2′,7′-Dichlorodihydrofluorescin (DCFH). This species is subsequently oxidized to the highly fluorescent 2′,7′-Dichlorodihydrofluorescein (DCF) species in the presence of ROS. The fluorescent intensity is directly proportional to the amount of ROS present in cell cytosol. BSO (2-amino-4-(butylsulfonimidoyl)butanoic acid) was used to inhibit the first step of de novo glutathione synthesis, allowing us to observe the elevated intra-cellular [ROS] are thereby observed.
Cellular studies were carried out to evaluate the intra-cellular antioxidant efficacy and toxicity of compound 2 (Chart 2) compared to 1 using the cell-permeable fluorophore 2,7′-dichlorodihydrofluorescin diacetate (DCFH-DA) as an indicator for ROS. DCFH-DA diffuses into cells and is deacetylated by cellular esterases to non-fluorescent 2′,7′-dichlorodihydrofluorescin (DCFH) which is subsequently oxidized to the highly fluorescent 2′,7′-dichlorodihydrofluorescein (DCF) species in the presence of ROS. The fluorescence intensity is directly proportional to the amount of ROS present in cell cytosol.^11 BSO (2-amino-4-(butylsulfonimidoyl)butanoic acid) is a commonly used model for oxidative stress via inhibition of cytosolic glutathione synthesis resulting in elevated intra-cellular [ROS] and an increased fluorescent signal in the presence of DCFH (FIG. 9).

amyloid aggregates = assay: TEM imaging of copper-induced amyloid aggregates; type: biochemical; details: incubated 12 hours
Description: FIG. 3 is an illustration of TEM Images showing (a) copper induced aggregation of amyloid and (b) its dissolution by 1.
Transmission electron microscopy (TEM) and Scanning Electron Microscopy (SEM) were utilized to study the morphology of the aggregates with and without chelators, as well. […] Aliquots from the stock used to make grid (a) were then incubated with 1 for 12 hours and then prepared for microscopy. The sizes of the aggregates upon treatment with 1 are an average of 1-2 orders of magnitude smaller and observably more diffuse, as shown in grid (b). SEM images also confirm the ability of the chelates to affect aggregate size as well.

two separate cell lines = assay: Preliminary cell-viability screen; type: cell-based
Source text: as §2

[11] = log K constants with Zn^II; type: binding
Source text: as §3

O=C(CCCCC1CCSS1)N1CCNCCNCCNCC1 (racemic) [Compound 2 (Chart 4), (±)-5-(1,2-dithiolan-3-yl)-1-(1,4,7,10-tetraazacyclododecan-1-yl)pentan-1-one]
increase of cell proliferation with respect to the control (Aβ+Cu^+2) (HT-22 cells): 37% | quenching of the DPPH radical [1]: equivalent amount of radical | EC50 at 48 h (MTT cytotoxicity assay): 312 µM

O=C(O)CCCC[C@@H](S)CCS (racemic) [DHLA, dihydrolipoic acid]
redox potential [2]: −320 mV | pKa [3]: 4.7

c1cc2nc(c1)CNCCNCCNC2 [1 (Chart 1), pyclen]
viability at 0.001 µM (FRDA cells [4]): > 85% | disaggregation of pre-formed metal-induced Aβ1-40 aggregates (turbidity) (Aβ1-40 [5]): reversed | disaggregation of pre-formed metal-induced Aβ1-40 aggregates (turbidity) (Aβ1-40 [5]; listed as 1 (Chart 2)): disaggregated | prevention of metal-induced Aβ1-40 aggregation (turbidity) (Aβ1-40 [5]; ligand co-incubated with amyloid before copper(II) or zinc(II) addition): prevents formation of aggregations | Trolox equivalents (ABTS radical) [6]: 0.4 Trolox equivalents | reconstitution of Tyr^10 fluorescence of aggregated Aβ1-40 (Aβ1-40 [7]; ligand added to pre-formed metal aggregates): equally effective | prevention of loss of Tyr^10 fluorescence of Aβ1-40 (Aβ1-40 [7]; ligand co-incubated prior to metal ion addition, 24 hours): equally effective | OH. generation measured as 7-hydroxy-CCA fluorescence, ligand co-incubated ([8]; CCA 100 uM, ascorbate 300 uM, Cu^II 40 uM): prevented entirely | 7-hydroxy-CCA signal after addition to running Cu-ascorbate system ([8]; added after two minutes co-incubation with CCA): leveling of the 7-hydroxy-CCA signal | log K constants Cu^II [9]: 20 | increase of ROS over the negative control (media) (FRDA cells [10]): 15% | decrease of amyloid aggregate size compared to the copper aggregates (TEM) (amyloid aggregates): 1-2 orders of magnitude | tolerance in cell-viability screen (two separate cell lines): large degree of tolerance | log K constants Zn^II [11]: 14
